Values joined by “and” are separate entries in the source; they are usually repeats but may differ in a detail not shown here. Equal values may be shown once.
Tests used:
[1] = tested on: human ovarian adenocarcinoma SKOV-3 cells; test: Cytotoxicity assay (CellTiter-Glo, 72 h), SKOV-3; type: cell-based; conditions: raw replicate data
Method in brief: (§1)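 Following 4 h attachment at 1000 cells/well, the three lines received serially halved compound doses (DMSO 0.5%) for 72 h at 37 °C under 5% CO2, with cell viability then determined by CellTiter-Glo.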

[2] = Cytotoxicity assay (CellTiter-Glo, 72 h), SKOV-3; type: cell-based, human; conditions: human, raw replicate data, read-out: SKOV3 viability (%)
Method in brief: as §1

[3] = tested on: Jurkat, SKOV-3 and MESO-1 cells; test: Cytotoxicity assay, statements for all tested cell lines together; type: cell-based; conditions: Jurkat, SKOV-3 and MESO-1 cells, 72 h
Method in brief: as §1

[4] = tested on: malignant pleural mesothelioma MESO-1 cells; test: Cytotoxicity assay (CellTiter-Glo, 72 h), MESO-1; type: cell-based; conditions: raw replicate data
Method in brief: as §1

[5] = Cytotoxicity assay (CellTiter-Glo, 72 h), MESO-1; type: cell-based; conditions: human, MESO-1 malignant pleural mesothelioma cells, raw replicate data, read-out: MESO1 viability (%)
Method in brief: as §1

[6] = biological target: T1, FKBP12 and mTOR (Homo sapiens, UniProt P42345+P62942); test: Fluoppi analysis: induction of FKBP12-mTOR complex formation in transfected HeLa cells; type: cell-based; conditions: for Foci intensity: raw data, one replicate per line
T1 construct: host or cells: HeLa cells
T1 sequence (P42345 2025-2114 limits assumed): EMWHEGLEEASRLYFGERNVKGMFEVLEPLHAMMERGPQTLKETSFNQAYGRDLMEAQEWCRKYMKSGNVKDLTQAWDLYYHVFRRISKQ
T1 sequence (P62942 whole entry): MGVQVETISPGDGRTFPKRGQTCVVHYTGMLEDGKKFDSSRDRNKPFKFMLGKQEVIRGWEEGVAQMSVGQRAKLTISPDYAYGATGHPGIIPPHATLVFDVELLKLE
Method in brief: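 Complex formation read as fluorescent foci: foci intensity over total per-cell intensity, imaged (×20, 9 fields/well) after fixation and Hoechst stain, giving EC50. Cells: HeLa transiently expressing hAG-mTOR and Ash-FKBP12, exposed to compound concentrations for 1 h at 37 °C.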

PPI-inducing (binding enhancing) activity between FKBP12 and mTOR compared with rapamycin (1), in words ([6]; Fluoppi): relatively weaker activities
EC50 ([6]; Fluoppi, HeLa cells, 1 h treatment, three independent biological replicates, read-out: EC50, induction of the formation of FKBP-mTOR complex): 34 nM
Foci intensity ([6]; conc 9.53674e-5 uM): 0.01796 and 0.01734 and 0.0265
Foci intensity ([6]; conc 0.000190735 uM): 0.007038 and 0.008763 and 0.03506
Foci intensity ([6]; conc 0.00038147 uM): 0.01287 and 0.02231 and 0.02044
Foci intensity ([6]; conc 0.000762939 uM): 0.01526 and 0.03513 and 0.01148
Foci intensity ([6]; conc 0.00152588 uM): 0.01977 and 0.009687 and 0.01946
Foci intensity ([6]; conc 0.00305176 uM): 0.01393 and 0.02436 and 0.01751
Foci intensity ([6]; conc 0.00610352 uM): 0.02196 and 0.02086 and 0.01607
Foci intensity ([6]; conc 0.012207 uM): 0.03665 and 0.02818 and 0.0403
Foci intensity ([6]; conc 0.0244141 uM): 0.1568 and 0.166 and 0.1355
Foci intensity ([6]; conc 0.0488281 uM): 0.2266 and 0.245 and 0.2523
Foci intensity ([6]; conc 0.0976562 uM): 0.282 and 0.2404 and 0.219
Foci intensity ([6]; conc 0.195312 uM): 0.2721 and 0.2692 and 0.2013
Foci intensity ([6]; conc 0.390625 uM): 0.3169 and 0.313 and 0.309
Foci intensity ([6]; conc 0.78125 uM): 0.3134 and 0.2906 and 0.2987
Foci intensity ([6]; conc 1.5625 uM): 0.3134 and 0.3737 and 0.3166
Foci intensity ([6]; conc 3.125 uM): 0.3491 and 0.3731 and 0.3792
Foci intensity ([6]; conc 6.25 uM): 0.279 and 0.3226 and 0.3138
Foci intensity ([6]; conc 12.5 uM): 0.3645 and 0.3352 and 0.3161
Foci intensity ([6]; conc 25 uM): 0.2867 and 0.3845 and 0.2898
Foci intensity ([6]; conc 50 uM): 0.3496 and 0.3134 and 0.3176
SMILES: CO[C@@H]1/C=C/C=C/[C@@H](C)C[C@@H](C)C(=O)C[C@H](O)/C(C)=C/[C@@H](C)C(=O)C[C@@H]([C@H](C)C[C@@H]2CC[C@@H](O)[C@H](OC)C2)OC(=O)[C@@H]2CCCCN2C(=O)C(=O)[C@]2(O)O[C@@H](CC[C@H]2C)C1 [Compound 9]
SKOV3 viability (%) ([1]; conc 9.53674e-5 uM): 105.9% and 100.3%
SKOV3 viability (%) ([1]; conc 0.000190735 uM): 101.8% and 104.0%
SKOV3 viability (%) ([1]; conc 0.00038147 uM): 103.8%
SKOV3 viability (%) ([1]; conc 0.000762939 uM): 99.7% and 104.2%
SKOV3 viability (%) ([1]; conc 0.00152588 uM): 108.5% and 105.8%
SKOV3 viability (%) ([1]; conc 0.00305176 uM): 98.1%
SKOV3 viability (%) ([1]; conc 0.00610352 uM): 101.6% and 106.7%
SKOV3 viability (%) ([1]; conc 0.012207 uM): 93.5% and 95.1%
SKOV3 viability (%) ([1]; conc 0.0244141 uM): 95.8% and 102.2%
SKOV3 viability (%) ([1]; conc 0.0488281 uM): 93.6% and 92.4%
SKOV3 viability (%) ([1]; conc 0.0976562 uM): 93.2% and 87.5%
SKOV3 viability (%) ([1]; conc 0.195312 uM): 79.8% and 81.0%
SKOV3 viability (%) ([1]; conc 0.390625 uM): 82.0% and 78.5%
SKOV3 viability (%) ([1]; conc 0.78125 uM): 67.6% and 71.1%
SKOV3 viability (%) ([1]; conc 1.5625 uM): 76.5% and 72.9%
SKOV3 viability (%) ([1]; conc 3.125 uM): 73.0% and 75.2%
SKOV3 viability (%) ([1]; conc 6.25 uM): 70.8% and 73.4%
SKOV3 viability (%) ([1]; conc 12.5 uM): 62.7% and 63.5%
SKOV3 viability (%) ([1]; conc 25 uM): 72.9%
SKOV3 viability (%) ([1]; conc 50 uM): 57.2% and 56.0%
viability at 72 h, 9.53674e-05 uM ([2]; SKOV-3 cells (ovarian adenocarcinoma), conc 9.53674e-5 uM): 103%
viability at 72 h, 0.000190735 uM ([2]; SKOV-3 cells (ovarian adenocarcinoma), conc 0.000190735 uM): 105%
viability at 72 h, 0.00038147 uM ([2]; SKOV-3 cells (ovarian adenocarcinoma), conc 0.00038147 uM): 97.1%
viability at 72 h, 0.000762939 uM ([2]; SKOV-3 cells (ovarian adenocarcinoma), conc 0.000762939 uM): 101%
viability at 72 h, 0.00152588 uM ([2]; SKOV-3 cells (ovarian adenocarcinoma), conc 0.00152588 uM): 102%
viability at 72 h, 0.00305176 uM ([2]; SKOV-3 cells (ovarian adenocarcinoma), conc 0.00305176 uM): 97.4%
viability at 72 h, 0.00610352 uM ([2]; SKOV-3 cells (ovarian adenocarcinoma), conc 0.00610352 uM): 105%
viability at 72 h, 0.012207 uM ([2]; SKOV-3 cells (ovarian adenocarcinoma), conc 0.012207 uM): 99.1%
viability at 72 h, 0.0244141 uM ([2]; SKOV-3 cells (ovarian adenocarcinoma), conc 0.0244141 uM): 97.2%
viability at 72 h, 0.0488281 uM ([2]; SKOV-3 cells (ovarian adenocarcinoma), conc 0.0488281 uM): 90.5%
viability at 72 h, 0.0976562 uM ([2]; SKOV-3 cells (ovarian adenocarcinoma), conc 0.0976562 uM): 92.1%
viability at 72 h, 0.195312 uM ([2]; SKOV-3 cells (ovarian adenocarcinoma), conc 0.195312 uM): 75%
viability at 72 h, 0.390625 uM ([2]; SKOV-3 cells (ovarian adenocarcinoma), conc 0.390625 uM): 80.5%
viability at 72 h, 12.5 uM ([2]; SKOV-3 cells (ovarian adenocarcinoma), conc 12.5 uM): 60.9%
viability at 72 h, 25 uM ([2]; SKOV-3 cells (ovarian adenocarcinoma), conc 25 uM): 70.4%
viability at 72 h, 50 uM ([2]; SKOV-3 cells (ovarian adenocarcinoma), conc 50 uM): 52.8%
viability at 72 h, 0.78125 uM ([2]; SKOV-3 ovarian adenocarcinoma cells, conc 0.78125 uM): 70.1%
viability at 72 h, 1.5625 uM ([2]; SKOV-3 ovarian adenocarcinoma cells, conc 1.5625 uM): 73.8%
viability at 72 h, 3.125 uM ([2]; SKOV-3 ovarian adenocarcinoma cells, conc 3.125 uM): 65.5%
viability at 72 h, 6.25 uM ([2]; SKOV-3 ovarian adenocarcinoma cells, conc 6.25 uM): 70.2%
Effect on cell viability, in words [3]: slightly suppressed the cell viabilities
MESO1 viability (%) ([4]; conc 9.53674e-5 uM): 98.3% and 100.4%
MESO1 viability (%) ([4]; conc 0.000190735 uM): 90.7% and 98.1%
MESO1 viability (%) ([4]; conc 0.00038147 uM): 97.4% and 97.9%
MESO1 viability (%) ([4]; conc 0.000762939 uM): 94.8% and 94.3%
MESO1 viability (%) ([4]; conc 0.00152588 uM): 99.1% and 102.8%
MESO1 viability (%) ([4]; conc 0.00305176 uM): 92.2% and 94.8%
MESO1 viability (%) ([4]; conc 0.00610352 uM): 96.7% and 92.3%
MESO1 viability (%) ([4]; conc 0.012207 uM): 91.8%
MESO1 viability (%) ([4]; conc 0.0244141 uM): 99.0% and 94.1%
MESO1 viability (%) ([4]; conc 0.0488281 uM): 84.2% and 90.6%
MESO1 viability (%) ([4]; conc 0.0976562 uM): 83.8% and 83.9%
MESO1 viability (%) ([4]; conc 0.195312 uM): 74.7% and 76.1%
MESO1 viability (%) ([4]; conc 0.390625 uM): 72.2% and 72.1%
MESO1 viability (%) ([4]; conc 0.78125 uM): 64.8% and 71.9%
MESO1 viability (%) ([4]; conc 1.5625 uM): 69.3% and 70.3%
MESO1 viability (%) ([4]; conc 3.125 uM): 69.9%
MESO1 viability (%) ([4]; conc 6.25 uM): 70.9% and 68.1%
MESO1 viability (%) ([4]; conc 12.5 uM): 63.1% and 61.3%
MESO1 viability (%) ([4]; conc 25 uM): 65.5% and 63.8%
MESO1 viability (%) ([4]; conc 50 uM): 61.4% and 51.1%
viability at 72 h, 9.53674e-05 uM ([5]; conc 9.53674e-5 uM): 101%
viability at 72 h, 0.000190735 uM ([5]; conc 0.000190735 uM): 93.5%
viability at 72 h, 0.00038147 uM ([5]; conc 0.00038147 uM): 95%
viability at 72 h, 0.000762939 uM ([5]; conc 0.000762939 uM): 93.4%
viability at 72 h, 0.00152588 uM ([5]; conc 0.00152588 uM): 100%
viability at 72 h, 0.00305176 uM ([5]; conc 0.00305176 uM): 92.4%
viability at 72 h, 0.00610352 uM ([5]; conc 0.00610352 uM): 95.6%
viability at 72 h, 0.012207 uM ([5]; conc 0.012207 uM): 89.8%
viability at 72 h, 0.0244141 uM ([5]; conc 0.0244141 uM): 91%
viability at 72 h, 0.0488281 uM ([5]; conc 0.0488281 uM): 82.4%
viability at 72 h, 0.0976562 uM ([5]; conc 0.0976562 uM): 85.7%
viability at 72 h, 0.195312 uM ([5]; conc 0.195312 uM): 74.8%
viability at 72 h, 0.390625 uM ([5]; conc 0.390625 uM): 75.8%
viability at 72 h, 0.78125 uM ([5]; conc 0.78125 uM): 66.3%
viability at 72 h, 1.5625 uM ([5]; conc 1.5625 uM): 71.8%
viability at 72 h, 3.125 uM ([5]; conc 3.125 uM): 65.2%
viability at 72 h, 6.25 uM ([5]; conc 6.25 uM): 69.4%
viability at 72 h, 12.5 uM ([5]; conc 12.5 uM): 63.3%
viability at 72 h, 25 uM ([5]; conc 25 uM): 63.9%
viability at 72 h, 50 uM ([5]; conc 50 uM): 53%

— PMC7419507, “In vitro Cas9-assisted editing of modular polyketide synthase genes to produce desired natural product derivatives” (Nature Communications, 2020)
